pIC50: −log10 of the molar value. Blank lines part the entries; values can stand above or below the compound they belong to.
What was measured:
CYP3A4 [1] = target: T1, CYP3A4 (Homo sapiens, UniProt P08684); test: Inhibition of CYP3A4 at 3 uM; type: ADME
Mus musculus [2] = species on record: Mus musculus; test: animal or person; settings: C57BL/6J, Plasma, po, 1 h
Description: In vivo inhibition of DPP4 in po dosed C57BL/6J mouse plasma measured after 1 hr

Mus musculus [3] = species on record: Mus musculus; test: animal or person; settings: C57BL/6J, Plasma, po, 1 h, read-out: INH
Description: In vivo inhibition of DPP4 in C57BL/6J mouse plasma at 0.3 mg/kg, po measured after 1 hr

Dipeptidyl peptidase 4 = Dipeptidyl peptidase 4 (Mus musculus, UniProt P28843); test: Inhibition of mouse DPP4
Mus musculus [4] = species on record: Mus musculus; test: animal or person; settings: C57BL/6J, Plasma, po, 1 h, read-out: INH; remark: listed apart in the source
Description: In vivo inhibition of DPP4 in C57BL/6J mouse plasma at 3 mg/kg, po measured after 1 hr

CYP3A4 [5] = target: T1, CYP3A4; test: Inhibition of CYP3A4 at 10 uM; type: ADME
CYP3A4 [6] = target: T1, CYP3A4; test: Inhibition of CYP3A4 at 1 uM; type: ADME
Mus musculus [7] = species on record: Mus musculus; test: animal or person; settings: C57BL/6J, Plasma, po, 1 h, read-out: INH; remark: listed apart in the source
Description: In vivo inhibition of DPP4 in C57BL/6J mouse plasma at 10 mg/kg, po measured after 1 hr

Mus musculus [8] = species on record: Mus musculus; test: animal or person; settings: C57BL/6J, Plasma, po, 1 h, read-out: INH; remark: listed apart in the source
Description: In vivo inhibition of DPP4 in C57BL/6J mouse plasma at 1 mg/kg, po measured after 1 hr

Cytochrome P450 3A4 [9] = target: T2, Cytochrome P450 3A4 (Homo sapiens, UniProt P08684); test: Inhibition of CYP3A4; type: ADME
Rattus norvegicus [10] = species on record: Rattus norvegicus; test: animal or person; settings: Sprague-Dawley, Plasma, po, 6 h, read-out: INH
Description: In vivo inhibition of DPP4 in Sprague-Dawley rat plasma at 10 mg/kg, po administered as single dose measured up to 6 hrs

[11] = Stability in rat plasma assessed as compound remaining at 1 hr; type: ADME, cell-free; settings: read-out: Stability
Mus musculus [12] = species on record: Mus musculus; test: animal or person; settings: C57BL/6J, po, 2 h
Description: Antidiabetic activity in po dosed C57BL/6J mouse assessed as reduction in glucose AUC administered prior to glucose challenge measured up to 120 mins

[13] = Metabolic stability in rat liver microsomes assessed as compound remaining at 1 hr; type: ADME, Microsome; settings: read-out: Stability
[14] = Cmax in rat at 10 mg/kg, po; type: ADME, organism-based; parameters: dose 10 mg/kg, route oral; settings: in vivo
[15] = Solubility of the compound at pH 1-9; type: physicochemical; settings: buffer
[16] = Protein binding in rat; type: ADME, organism-based; settings: plasma, read-out: PB (converted)
[17] = Half life in rat at 10 mg/kg, po; type: ADME, organism-based; parameters: dose 10 mg/kg, route oral; settings: in vivo
[18] = Protein binding in mouse; type: ADME, organism-based; settings: plasma, read-out: PB (converted)
Rattus norvegicus [19] = species on record: Rattus norvegicus; test: animal or person; settings: Sprague-Dawley, Plasma, po, 24 h, read-out: INH
Description: In vivo inhibition of DPP4 in Sprague-Dawley rat plasma at 10 mg/kg, po administered as single dose measured after 24 hrs

[20] = Metabolic stability in human liver microsomes assessed as compound remaining at 1 hr; type: ADME, Microsome; settings: read-out: Stability
[21] = Metabolic stability in mouse liver microsomes assessed as compound remaining at 1 hr; type: ADME, Microsome; settings: read-out: Stability
[22] = Protein binding in human; type: ADME, organism-based; settings: plasma, read-out: PB (converted)
Mus musculus [23] = species on record: Mus musculus; test: animal or person; settings: C57BL/6J, po, 1 h, read-out: INH
Description: In vivo inhibition of DPP4 in C57BL/6J mouse at 1 mg/kg, po measured after 1 hr

Mus musculus [24] = species on record: Mus musculus; test: animal or person; settings: C57BL/6J, po, 1 h, read-out: INH; remark: listed apart in the source
Description: In vivo inhibition of DPP4 in C57BL/6J mouse at 3 mg/kg, po measured after 1 hr

Cytochrome P450 3A4 [25] = target: T2, Cytochrome P450 3A4; test: Induction of CYP3A4 at 50 uM; type: ADME
[26] = Stability in human plasma assessed as compound remaining at 1 hr; type: ADME, cell-free; settings: read-out: Stability
[27] = Metabolic stability in dog liver microsomes assessed as compound remaining at 1 hr; type: ADME, Canis lupus familiaris, Microsome; settings: read-out: Stability
[28] = Stability in mouse plasma assessed as compound remaining at 1 hr; type: ADME, cell-free; settings: read-out: Stability
[29] = Oral bioavailability in rat at 10 mg/kg; type: ADME, organism-based; settings: in vivo
Mus musculus [30] = species on record: Mus musculus; test: animal or person; settings: C57BL/6J, po, 1 h, read-out: INH; remark: listed apart in the source
Description: In vivo inhibition of DPP4 in C57BL/6J mouse at 10 mg/kg, po measured after 1 hr

T2 sequence (P08684 whole entry): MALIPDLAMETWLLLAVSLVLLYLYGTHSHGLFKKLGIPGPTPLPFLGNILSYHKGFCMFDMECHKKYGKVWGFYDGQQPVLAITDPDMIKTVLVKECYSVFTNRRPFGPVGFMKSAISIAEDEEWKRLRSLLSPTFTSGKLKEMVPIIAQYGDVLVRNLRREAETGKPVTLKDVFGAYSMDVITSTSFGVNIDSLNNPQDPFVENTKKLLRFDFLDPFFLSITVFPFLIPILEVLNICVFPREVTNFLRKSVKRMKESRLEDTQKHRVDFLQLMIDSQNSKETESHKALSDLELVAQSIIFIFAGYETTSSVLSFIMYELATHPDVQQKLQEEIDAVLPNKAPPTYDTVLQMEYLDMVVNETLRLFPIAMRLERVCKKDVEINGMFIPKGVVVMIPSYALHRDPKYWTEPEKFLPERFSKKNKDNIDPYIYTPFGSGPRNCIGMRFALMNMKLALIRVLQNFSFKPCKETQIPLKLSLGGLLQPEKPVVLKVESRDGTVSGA
T1 sequence (P08684 whole entry): as above
Dipeptidyl peptidase 4, sequence (P28843 whole entry): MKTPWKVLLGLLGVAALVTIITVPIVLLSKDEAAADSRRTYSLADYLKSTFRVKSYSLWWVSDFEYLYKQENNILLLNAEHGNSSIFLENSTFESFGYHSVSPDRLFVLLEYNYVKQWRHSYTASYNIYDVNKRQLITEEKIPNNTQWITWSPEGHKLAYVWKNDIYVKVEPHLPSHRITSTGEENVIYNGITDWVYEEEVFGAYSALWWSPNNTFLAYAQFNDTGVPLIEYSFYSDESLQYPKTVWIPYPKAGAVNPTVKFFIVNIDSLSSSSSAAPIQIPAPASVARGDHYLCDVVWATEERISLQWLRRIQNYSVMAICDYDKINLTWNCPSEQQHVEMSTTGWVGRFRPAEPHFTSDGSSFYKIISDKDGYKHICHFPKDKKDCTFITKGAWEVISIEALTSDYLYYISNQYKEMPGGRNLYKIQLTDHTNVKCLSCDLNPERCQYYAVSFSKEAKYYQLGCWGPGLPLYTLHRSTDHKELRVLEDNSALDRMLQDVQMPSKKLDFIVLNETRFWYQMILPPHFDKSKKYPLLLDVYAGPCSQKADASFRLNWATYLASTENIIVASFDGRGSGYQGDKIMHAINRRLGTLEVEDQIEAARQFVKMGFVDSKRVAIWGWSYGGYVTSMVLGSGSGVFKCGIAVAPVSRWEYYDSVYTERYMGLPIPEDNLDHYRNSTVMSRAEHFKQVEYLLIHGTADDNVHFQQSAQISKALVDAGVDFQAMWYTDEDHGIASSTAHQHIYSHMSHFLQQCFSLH

Compound: N[C@@H](CC(=O)N1CCN(c2ccc(F)cc2F)CC1)Cc1cc(F)c(F)cc1F
inhibition at 3 µM (CYP3A4 [1]): 94% | ED50 (Mus musculus [2]): 0.87 mg/kg | inhibition in vivo at 0.3 mg/kg (Mus musculus [3]): 33.8% | pIC50 (Dipeptidyl peptidase 4): 7.03 | inhibition in vivo at 3 mg/kg (Mus musculus [4]): 68.6% | inhibition at 10 µM (CYP3A4 [5]): 100% | inhibition at 1 µM (CYP3A4 [6]): 81.5% | inhibition in vivo at 10 mg/kg (Mus musculus [7]): 85.9% | inhibition in vivo at 1 mg/kg (Mus musculus [8]): 52.2%

pIC50 (Cytochrome P450 3A4 [9]): 6.00
Compound: N[C@@H](CC(=O)N1CCN(C(=O)c2ccccc2)CC1)Cc1cc(F)c(F)cc1F

pIC50 (Cytochrome P450 3A4 [9]): 6.00
Compound: N[C@@H](CC(=O)N1CCN(C(=O)c2ccc(F)cc2)CC1)Cc1cc(F)c(F)cc1F

pIC50 (Cytochrome P450 3A4 [9]): 6.00
Compound: N[C@@H](CC(=O)N1CCN(C(=O)c2ccc(O)cc2)CC1)Cc1cc(F)c(F)cc1F

pIC50 (Cytochrome P450 3A4 [9]): 6.00
Compound: N[C@@H](CC(=O)N1CCN(C(=O)c2ccc(OC(F)(F)F)cc2)CC1)Cc1cc(F)c(F)cc1F

pIC50 (Cytochrome P450 3A4 [9]): 6.00
Compound: N[C@@H](CC(=O)N1CCN(C(=O)c2ccc(C(F)(F)F)cc2)CC1)Cc1cc(F)c(F)cc1F

pIC50 (Cytochrome P450 3A4 [9]): 6.00
Compound: N[C@@H](CC(=O)N1CCN(C(=O)c2ccc(S(N)(=O)=O)cc2)CC1)Cc1cc(F)c(F)cc1F

pIC50 (Cytochrome P450 3A4 [9]): 6.00
Compound: N[C@@H](CC(=O)N1CCN(C(=O)c2ccc(C(=O)O)cc2)CC1)Cc1cc(F)c(F)cc1F

pIC50 (Cytochrome P450 3A4 [9]): 6.00
Compound: N[C@@H](CC(=O)N1CCN(C(=O)c2cccc(C(=O)O)c2)CC1)Cc1cc(F)c(F)cc1F

pIC50 (Cytochrome P450 3A4 [9]): 6.00
Compound: CN1CCN(c2ccc(C(=O)N3CCN(C(=O)C[C@H](N)Cc4cc(F)c(F)cc4F)CC3)cc2)CC1

Compound: N[C@@H](CC(=O)N1CCN(C(=O)c2ccccn2)CC1)Cc1cc(F)c(F)cc1F
inhibition in vivo at 10 mg/kg (Rattus norvegicus [10]): 60% | remaining at 1 h [11]: > 97% | ED30 (Mus musculus [12]): 0.38 mg/kg | remaining at 1 h [13]: 85% | Cmax [14]: 2030 ng/mL | solubility [15]: > 10000 µg/mL | fraction unbound [16]: 0.729 | half-life [17]: 4.74 h | fraction unbound [18]: 0.557 | inhibition in vivo at 10 mg/kg (Rattus norvegicus [19]): 30% | remaining at 1 h [20]: 89% | remaining at 1 h [21]: 79% | fraction unbound [22]: 0.497 | inhibition in vivo at 1 mg/kg (Mus musculus [23]): 32.5% | inhibition in vivo at 3 mg/kg (Mus musculus [24]): 59.1% | Activity (Cytochrome P450 3A4 [25]): < 10% | remaining at 1 h [26]: 97% | remaining at 1 h [27]: 88% | remaining at 1 h [28]: > 97% | bioavailability [29]: 65.3% | inhibition in vivo at 10 mg/kg (Mus musculus [30]): 84.6%

Reference: ChEMBL document CHEMBL2069253, “Dipeptidyl peptidase-4 inhibitor with β-amino amide scaffold: synthesis, SAR and biological evaluation” (Bioorg Med Chem Lett, 2012)
